Results reported in patent publication US20040132648A1, “Remedies and/or preventives for conformational diseases” (priority 2001, published 2004).
Square brackets hold non-standard residues; d marks the D form. Nle = CCCC[C@H](N)C(=O)O

Test system: PC12 cells
Test: Neuroprotective action against β-amyloid, viable cell count / survival rate by WST-8 method
Type: cell-based, rat
Parameters: key to Neuroprotective action: +, P < 0.05 when compared with the no neuropeptide-added group
Settings: not given
Experimental: An experiment was performed similarly to Example 5, and then the neuroprotective action against cell death by β-amyloid of the following PACAP-related neuropeptides (peptides 1, 2, 4, 5, 7, 8, 15, 16, 17, 19, 21, 26, 27, 28, 29, 30, 31, 32, 33, 34, 35, 36, 37, 38 and 39) and VIP-related neuropeptides (peptides 3, 9, 10, 11, 12, 13, 14, 18, 20, 22, 23, 24 and 25) was confirmed. Specifically, amyloid (50 μM) and each of the various PACAP-related neuropeptides and VIP-related neuropeptides were added to the cultured PC12 cells. The number of […] calculated by the WST-8 method, so that comparison and examination was performed for the neuroprotective action of these various peptides against amyloid. If the neuropeptides had neuroprotective action, a clear difference in viable cell count can be observed between cases in which neuropeptides were added and cases in which neuropeptides were not added. In PC12 cells added with each of the various neuropeptides, a case wherein a higher cell survival rate (P<0.05) was observed compared with groups in which neuropeptides had not been added, was determined as having neuroprotective action. The results are shown in Table 1 and Table 2. β-amyloid was added to PC12 cells that had been cultured similarly to Example 5. At this time, neuropeptides PACAP27, VIP and humanin, and a cell-permeable cAMP derivative were allowed to respectively co-exist, so that the effect of these neuropeptides against cell death by β-amyloid was confirmed. Cell death was examined by evaluating cell count using the WST-8 method, and then by calculating cell survival rate. […] In the presence of β-amyloid, approximately 70% of the cells died. […] The neuroprotective action of humanin, a recently found human-derived neuroprotective substance (Proc Natl Acad Sci USA (2001) 98 (11) 6336-6341), was also examined. […] At this time, neuropeptides at various concentrations were allowed to co-exist, so that the relationship between the neuroprotective action and the concentration was investigated. Cells were calculated by the WST-8 method, and then the extent to which cell death by β-amyloid could be attenuated was expressed numerically.

Compound | Neuroprotective action
PACAP38 [Peptide 1] | +

Same assay, conditions: PACAP-related neuropeptide 10^−9 M; amyloid (50 μM); cell survival rate vs no peptide

Compound | Neuroprotective action
Arg-PACAP27 (H-HSDGIFTDSYSRYRRQLAVRRYLAAVL-NH2; ends and bridges not checked) [Peptide 6] | +
Arg-PACAP38 (H-HSDGIFTDSYSRYRRQLAVRRYLAAVLGRRYRQRVRNR-NH2; ends and bridges not checked) [Peptide 4] | +
PACAP27 (H-HSDGIFTDSYSRYRKQMAVKKYLAAVL-NH2; ends and bridges not checked) [Peptide 2] | +
PACAP27 highly basic derivative A (H-HSDGIFTDSYSRYRRQLAVRRYLAAVLGK-NH2; ends and bridges not checked) [Peptide 15] | +
PACAP27 highly basic derivative B (H-HSDGIFTDSYSRYRRQLAVRRYLAAVLGKR-NH2; ends and bridges not checked) [Peptide 16] | +
PACAP27 highly basic derivative C (H-HSDGIFTDSYSRYRRQLAVRRYLAAVLGRR-NH2; ends and bridges not checked) [Peptide 17] | +
PACAP long form (PACAP28) (H-HSDGIFTDSYSRYRKQMAVKKYLAAVLG-NH2; ends and bridges not checked) [Peptide 29] | +
PACAP long form (PACAP29) (H-HSDGIFTDSYSRYRKQMAVKKYLAAVLGK-NH2; ends and bridges not checked) [Peptide 30] | +
PACAP long form (PACAP30) (H-HSDGIFTDSYSRYRKQMAVKKYLAAVLGKR-NH2; ends and bridges not checked) [Peptide 31] | +
PACAP long form (PACAP31) (H-HSDGIFTDSYSRYRKQMAVKKYLAAVLGKRY-NH2; ends and bridges not checked) [Peptide 32] | +
PACAP long form (PACAP32) (H-HSDGIFTDSYSRYRKQMAVKKYLAAVLGKRYK-NH2; ends and bridges not checked) [Peptide 33] | +
PACAP long form (PACAP33) (H-HSDGIFTDSYSRYRKQMAVKKYLAAVLGKRYKQ-NH2; ends and bridges not checked) [Peptide 34] | +
PACAP long form (PACAP34) (H-HSDGIFTDSYSRYRKQMAVKKYLAAVLGKRYKQR-NH2; ends and bridges not checked) [Peptide 35] | +
PACAP long form (PACAP35) (H-HSDGIFTDSYSRYRKQMAVKKYLAAVLGKRYKQRV-NH2; ends and bridges not checked) [Peptide 36] | +
PACAP long form (PACAP36) (H-HSDGIFTDSYSRYRKQMAVKKYLAAVLGKRYKQRVK-NH2; ends and bridges not checked) [Peptide 37] | +
PACAP long form (PACAP37) (H-HSDGIFTDSYSRYRKQMAVKKYLAAVLGKRYKQRVKN-NH2; ends and bridges not checked) [Peptide 38] | +
PACAP short form (H-HSDGIFTDSYSRYRKQMAVKKYL-NH2; ends and bridges not checked) [Peptide 19] | +
PACAP short form (PACAP24) (H-HSDGIFTDSYSRYRKQMAVKKYLA-NH2; ends and bridges not checked) [Peptide 26] | +
PACAP short form (PACAP25) (H-HSDGIFTDSYSRYRKQMAVKKYLAA-NH2; ends and bridges not checked) [Peptide 27] | +
PACAP short form (PACAP26) (H-HSDGIFTDSYSRYRKQMAVKKYLAAV-NH2; ends and bridges not checked) [Peptide 28] | +
PACAP-like-peptide (stargazer-PACAP) (H-HSDGIFTDSYSRYRKQMAVQKYLAAVLGRRYRQRVRNK-NH2; ends and bridges not checked) [Peptide 5] | +
PACAP-like-peptide (stingray-PACAP) (H-HSDGIFTDSYSRYRKQMAVKKYLAAVLGKRYKPKRRNSGRRVFY-NH2; ends and bridges not checked) [Peptide 21] | +
[A^4, V^5, N^9]-PACAP27 [Peptide 8] | +
[A^4, V^5]-PACAP27 (H-HSDAVFTDSYSRYRKQMAVKKYLAAVL-NH2; ends and bridges not checked) [Peptide 7] | +

Same assay, conditions: VIP-related neuropeptide 10^−7 M; amyloid (50 μM); cell survival rate vs no peptide

Compound | Neuroprotective action
VIP highly basic derivative A (HSDAVFTDNYTRLRRQLAVRRYLNSILNGK) [Peptide 11] | +
VIP highly basic derivative B (HSDAVFTDNYTRLRRQLAVRRYLNSILNGKR) [Peptide 12] | +
VIP highly basic derivative C (HSDAVFTDNYTRLRRQLAVRRYLNSILNGRR) [Peptide 13] | +
VIP short form (HSDAVFTDNYTRLRKQMAVKKYL) [Peptide 20] | +
VIP short form (VIP24) (HSDAVFTDNYTRLRKQMAVKKYLN) [Peptide 22] | +
VIP short form (VIP25) (HSDAVFTDNYTRLRKQMAVKKYLNS) [Peptide 23] | +
VIP short form (VIP26) (HSDAVFTDNYTRLRKQMAVKKYLNSI) [Peptide 24] | +
VIP short form (VIP27) (HSDAVFTDNYTRLRKQMAVKKYLNSIL) [Peptide 25] | +
VIP/PACAP highly basic chimera peptide (H-HSDAVFTDNYTRLRRQ[Nle]AVRRYLNSILNGRRYRQRVRNR-NH2; ends and bridges not checked) [Peptide 18] | +
[G^4, I^5, S^9]-VIP (H-HSDGIFTDSYTRLRKQMAVKKYLNSILN-NH2; ends and bridges not checked) [Peptide 10] | +
[G^4, I^5]-VIP (H-HSDGIFTDNYTRLRKQMAVKKYLNSILN-NH2; ends and bridges not checked) [Peptide 9] | +

Same assay, conditions: co-existing with β-amyloid; PACAP27 10^−9 M; FIG. 5

Compound | neuroprotective action against cell death by β-amyloid (cell survival rate)
CCCC(=O)Nc1ncnc2c1ncn2[C@@H]1O[C@@H]2COP(=O)(O)O[C@H]2[C@H]1OC(=O)CCC [dibutyryl-cAMP, reference compound] | cell death was very strongly suppressed
PACAP27 (H-HSDGIFTDSYSRYRKQMAVKKYLAAVL-NH2; ends and bridges not checked) [Peptide 2] | distinctly strong neuroprotective action
humanin (MAPRGFSCLLLLTSEIDLPVKRRA; Humanin; UniProt Q8IVG9 1-24, looked up) [a recently found human-derived neuroprotective substance, reference compound] | showed neuroprotective action, although the effect was also weaker than that of PACAP27

Same assay, conditions: β-amyloid alone; WST-8; FIG. 5

Compound | cells died in the presence of β-amyloid
β-amyloid 1-42 | approximately 70%

Test system: caspase-3
Test: Caspase-3 activating action of β-amyloid and its suppression (Ac-DEVD-AMC substrate)
Type: cell-based, rat
Settings: 10^−5 M β-amyloid; cAMP derivative 10^−4 M; FIG. 7
Experimental: PC12 cells that had been cultured almost similarly to Example 4 were cultured in a 24-well plate (2×10^5 cells/well). 10^−5 M β-amyloid was added to the plate. At this time, cAMP derivative (10^−4 M) and neuropeptide PACAP (10^−9 M) were added respectively, and then the action of activating caspase-3, an apoptosis-related enzyme, was examined. The caspase-3 activating action was examined using Ac-DEVD-AMC, a caspase-3 specific substrate. […] Further, by the addition of neuropeptide PACAP, an incomplete, approximately 50% suppressive effect was shown. […] Taking into consideration that this suppressive action is not complete, other action mechanisms may also be involved.

Compound | effect on caspase-3 activation by β-amyloid
CCCC(=O)Nc1ncnc2c1ncn2[C@@H]1O[C@@H]2COP(=O)(O)O[C@H]2[C@H]1OC(=O)CCC [dibutyryl-cAMP, reference compound] | significantly attenuated

Same assay, conditions: addition of 10^−5 M β-amyloid; FIG. 7

Compound | activity of caspase-3
β-amyloid 1-42 | improved

Test system: PC12 cells
Test: Cell death by β-amyloid monitored by lactate dehydrogenase release
Type: cell-based, rat
Settings: 48 hours; 0.2 μM insulin-containing serum-free DMEM; FIG. 3

Compound | cell death by β-amyloid vs control group
β-amyloid 1-42 | significant cell death

Same assay, conditions: 48 hours; 0.25% horse serum and 0.25% newborn calf serum-containing DMEM; FIG. 3

Compound | cell death by β-amyloid vs control group
β-amyloid 1-42 | significant cell death

Same assay, conditions: 48 hours; 5% horse serum and 5% newborn calf serum-containing DMEM; FIG. 3

Compound | cell death by β-amyloid vs control group
β-amyloid 1-42 | no cell death

Same assay, conditions: β-amyloid 10^−5M; PACAP27 10^−9M; over time; 0.2 μM insulin-containing serum-free DMEM; FIG. 4

Compound | neuroprotective action against cell death by β-amyloid (lactate dehydrogenase released into media)
PACAP27 (H-HSDGIFTDSYSRYRKQMAVKKYLAAVL-NH2; ends and bridges not checked) [Peptide 2] | cell death was very strongly suppressed
